Data taken from US5859067A, “Use of natural products and related synthetic compounds for the treatment of cardiovascular disease” (priority 1993, dated 1999).
Where “and” joins values, the source holds several entries; their conditions need not be identical. Identical values can stand only once. Like-named read-outs stand apart in the source and are kept apart here.

Experiments:
[1] = target: T1, human erythrocyte plasma membrane Ca^2+ -ATPase (Homo sapiens, UniProt P23634); experiment: Ca^2+ -ATPase assay (erythrocyte membranes; Table 1); assay type: biochemical; conditions: for inhibition at 100 µM / inhibition at 50 µM: read-out: INHIBITION OF Ca^2+ -ATPase PERCENT (%)
T1 construct: Calmodulin-depleted erythrocyte membranes were prepared by continuous filtration through a hollow fibre; tissue New South Wales Red Cross Transfusion Service, Sydney; host or cells: human packed red blood cells (calmodulin-depleted erythrocyte membranes)
T1 sequence (P23634 1-1205 isoform P23634-6): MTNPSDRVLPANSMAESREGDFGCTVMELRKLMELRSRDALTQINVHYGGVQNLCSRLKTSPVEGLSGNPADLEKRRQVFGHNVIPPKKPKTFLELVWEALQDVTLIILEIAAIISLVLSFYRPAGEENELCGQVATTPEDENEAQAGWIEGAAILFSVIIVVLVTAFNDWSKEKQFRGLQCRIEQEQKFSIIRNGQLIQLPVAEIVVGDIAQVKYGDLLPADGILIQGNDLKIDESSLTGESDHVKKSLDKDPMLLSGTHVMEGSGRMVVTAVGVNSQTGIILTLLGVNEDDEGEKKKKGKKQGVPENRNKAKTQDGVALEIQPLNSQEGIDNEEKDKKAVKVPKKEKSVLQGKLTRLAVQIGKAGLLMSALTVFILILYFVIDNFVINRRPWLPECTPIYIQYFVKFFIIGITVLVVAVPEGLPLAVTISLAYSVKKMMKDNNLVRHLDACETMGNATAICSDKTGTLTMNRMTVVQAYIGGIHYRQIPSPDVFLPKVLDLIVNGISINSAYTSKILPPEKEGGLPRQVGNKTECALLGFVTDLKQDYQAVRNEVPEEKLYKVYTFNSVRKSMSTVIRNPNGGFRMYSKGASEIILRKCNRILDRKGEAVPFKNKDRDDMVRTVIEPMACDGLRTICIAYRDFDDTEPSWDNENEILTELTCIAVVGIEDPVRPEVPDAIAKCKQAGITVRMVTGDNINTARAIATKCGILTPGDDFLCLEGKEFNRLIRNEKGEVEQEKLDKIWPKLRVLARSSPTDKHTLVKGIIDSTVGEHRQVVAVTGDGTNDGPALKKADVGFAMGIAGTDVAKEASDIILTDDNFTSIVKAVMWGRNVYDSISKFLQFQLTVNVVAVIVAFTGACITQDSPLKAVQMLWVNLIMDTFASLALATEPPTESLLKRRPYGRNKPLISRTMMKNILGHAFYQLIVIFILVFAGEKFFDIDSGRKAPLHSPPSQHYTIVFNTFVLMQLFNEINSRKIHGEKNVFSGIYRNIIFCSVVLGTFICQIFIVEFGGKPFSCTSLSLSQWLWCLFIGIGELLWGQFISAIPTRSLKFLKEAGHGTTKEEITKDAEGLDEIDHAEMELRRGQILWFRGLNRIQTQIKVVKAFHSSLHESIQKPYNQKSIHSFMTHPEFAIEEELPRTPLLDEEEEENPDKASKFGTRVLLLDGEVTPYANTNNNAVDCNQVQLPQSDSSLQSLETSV
T1 sequence (P35613 140-385 partner limits assumed): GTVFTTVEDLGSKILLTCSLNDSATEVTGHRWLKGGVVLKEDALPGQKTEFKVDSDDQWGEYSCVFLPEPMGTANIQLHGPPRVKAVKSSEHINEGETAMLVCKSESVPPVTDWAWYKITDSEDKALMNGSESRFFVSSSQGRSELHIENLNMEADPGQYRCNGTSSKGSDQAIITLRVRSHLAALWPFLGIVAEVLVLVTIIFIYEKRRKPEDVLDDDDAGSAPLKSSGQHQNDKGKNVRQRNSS
Protocol: Natural and synthetic compounds of formula (I) were tested for their ability to influence human erythrocyte plasma membrane Ca^2+ -ATPase.
Packed cells were obtained from the New South Wales Red Cross Transfusion Service, Sydney. The whole preparation was carried out at 4° C. 1 unit of packed red cells was washed 3 times with isotonic buffer, containing 130 mM KCl, 20 mM Tris-HCl (pH 7.4), and the cells were collected by centrifugation at 4,000 RPM. The cells were haemolysed by the buffer containing 1 mM EDTA, 10 mM Tris-Hcl (pH 7.4), 0.5 mM PMSF (phenylmethyl sulfonyl fluoride). The haemolyzate mixture was passed through the hollow fibre system until the membrane appeared white, and then washed with 10 mM potassium Hepes (pH 7.4). The membranes were collected by centrifugation at 10,000 RPM for 20 min, the membranes were resuspended in storage buffer containing 130 mM KCl, 2 mM dithiothreitol, 0.5 mM MgCl2, 20 mM potassium-Hepes (pH 7.5). The membranes with protein concentration of 1.5-5.4 mg/ml were stored at -80° C. until required.
Erythrocyte membranes (0.071-0.098 mg/ml) were incubated at 37° C. for one hour in a total volume of 0.4 ml of 65 mM KCl, 20 mM potassium-Hepes, 5 mM MgCl2, 50 μM CaCl2, 0.1 μm calmodulin, 0.1 mM EGTA. The reaction was started by adding 2 mM ATP(pH 7.4). […] The activity of the Mg^2+ -ATPase (assayed in the absence of added CaCl2) was subtracted from the total activity assayed in the presence of Ca^2+. […] A concentrated solution of the test substances was added to the reaction medium before adding ATP.

[2] = system: brine shrimp (Artemia salina Leach); experiment: Brine shrimp toxicity bioassay; assay type: in vivo; conditions: for LC50: read-out: LC50 brine shrimp
Protocol: There are many applications of the assay including analysis of toxic substances, anaesthetics, morphine-like substances and cocarcinogenicity of phorbol esters.
6 (K Hostettman, ed.), Academ Press, London, 1-32. DMSO solutions of the substances to be tested were added directly to the vials containing the brine shrimp. As the concentration of DMSO that we wished to use was higher than the recommended 1% v/v testing of the toxicity of the DMSO was therefore necessary.
Brine shrimp toxicity was assayed, except for some minor modifications, according to the method of McLaughlin et al as reported in Brine Shrimp: A convenient general bioassay for active plant constituents, B N Meyer, N R Ferrigni, J E Putman, L B Jacobsen, D E Nhols and J L McLaughlin. […] J L McLaughlin. […] 6 (K Hostettman, ed.), Academ Press, London, 1-32. Ten shrimp were added transferred to each of the vials and the volume adjusted to 4.9 mL. Each dose was performed in triplicate, including the control. In quick succession, the appropriate volume of additional DMSO for each dose, required to achieve a final concentration of 2%, was added before the appropriate volume of test solution. The vials were gently mixed and the time noted. After 24 hours, the number of survivors were counted and % mortality was determined.
The LC50 values were expressed in both μM and μg/mL.

[3] = read-out: INHIBITION OF Ca^2+ -ATPase IC50
[4] = Artemia salina, 24 h, read-out: % Deaths

inhibition at 100 µM ([1]; at 100 μM)	IC50 [1, 3]	Compound	LC50 ([2]; Artemia salina, 24 hours)	further results
		CCCCCCCCCCc1ccc(O)cc1 [4-decylphenol]		IC50 [1]: 170 µM; inhibition at 100 µM [1]: 24%; LC50 ([2]; Artemia salina, 24 h): 270 nM and 0.064 µg/mL
100%	22.5 µM	CC(C)=CCC/C(C)=C/CC/C(C)=C/Cc1c(O)cc(C)cc1O [grifolin, 2-E,E-farnesyl-5-methyl-resorcinol]	2.3 µM and 0.75 µg/mL	
100%	23.3 µM	CC(C)=CCC/C(C)=C/CC/C(C)=C/Cc1c(C)cc(O)cc1O [neogrifolin, 4-E,E-farnesyl-5-methyl-resorcinol]	28 µM and 9 µg/mL	Ca^2+ -ATPase inhibitory activity (in words) [1]: most potent among the alkyl and alkenyl resorcinols tested; relative toxicity to brine shrimp ([2]; neogrifolin compared with grifolin): about ten-fold weaker
35%	> 100 µM	Oc1cc(O)cc(CCCCCCCCCCCCCCc2cc(O)cc(O)c2)c1 [bisnorstriatol, 1,14-bis(3,5-dihydroxyphenyl)tetradecane]	40 µM and 17 µg/mL	inhibition at 500 µM ([1]; at 500 μM): 69.1%; toxicity to brine shrimp (in words) ([2]; 24 hours): relatively low toxicity
44%	108 µM	CCCCCCCCCc1cc(O)cc(O)c1 [5-nonylresorcinol]	> 100 µM and > 18 µg/mL	
	12 µM	Oc1ccc(CCCCCCCCCCc2ccccc2O)cc1 [1-(2-hydroxyphenyl)-10-(4-hydroxyphenyl)decane]	350 nM and 0.11 µg/mL	inhibition at 50 µM [1]: 100%
		Oc1ccc(CCCCCCCCCCCCc2ccc(O)cc2)cc1 [1,12-bis(4-hydroxyphenyl)dodecane]	3.8 µM and 1.4 µg/mL	
	17 µM	Cc1c(O)cc(CCCCCCCCCCCCCCc2cc(O)cc(O)c2)cc1O [grebustol-A, 1-(3,5-dihydroxy-phenyl)-14-(3,5-dihydroxy-4-methylphenyl)tetradecane]		inhibition at 50 µM [1]: 100%
		CCCCCCCCCc1cccc(O)c1 [3-nonylphenol]		IC50 [1]: 64 µM; inhibition at 100 µM [1]: 69%; LC50 ([2]; Artemia salina, 24 h): 320 nM and 0.07 µg/mL
		Cc1c(O)cc(CCCCCCCCc2cc(O)c(C)c(O)c2)cc1O [1,8-bis(3,5-dihydroxy-4-methylphenyl)octane]	> 25 µM and > 9 µg/mL	
5%	280 µM	Oc1ccc(CCCCCCCCCCCCCCc2ccc(O)cc2)cc1 [1,14-bis(4-hydroxyphenyl)tetradecane]	7.9 µM and 3.7 µg/mL	
44%	143 µM	CCCCCCCCCCCCCc1cc(O)cc(O)c1 [grevillol, 5-tridecylresorcinol]	2.8 µM and 0.8 µg/mL	Ca^2+ -ATPase inhibitory activity (in words) [1]: weak; toxicity to brine shrimp (in words) ([2]; 24 hours): moderately toxic
		CCCCCCCCCc1ccc(O)cc1 [4-nonylphenol]		IC50 [1]: 114 µM; inhibition at 100 µM [1]: 22%; LC50 ([2]; Artemia salina, 24 h): 400 nM and 0.088 µg/mL
		Cc1c(O)cc(CCCCCCCCCCc2cc(O)c(C)c(O)c2)cc1O [1,10-bis(3,5-dihydroxy-4-methylphenyl)decane]	> 25 µM and > 9.7 µg/mL	
76%	84 µM	CC(C)(C)c1cc(O)c(O)c(C(C)(C)C)c1 [3,5-di-tert-butyl-catechol, reference compound]		
		CCCCCCCCCCCCc1cc2c(C)cc(=O)oc2cc1O [6-dodecyl-7-hydroxy-4-methylcoumarin]	> 25 µM and > 8.1 µg/mL	
		CCCCCCCCCc1cc(O)c(C)c(O)c1 [2-methyl-5-nonyl-resorcinol]	8.3 µM and 2.1 µg/mL	

inhibition at 100 µM ([1]; at 100 μM)	IC50 [1, 3]	Compound	LC50 ([2]; Artemia salina, 24 hours)	further results
		Cc1cc(CCCCCCCCCCc2cccc(C)c2O)ccc1O [1-(2-hydroxy-3-methylphenyl)-10-(4-hydroxy-3-methylphenyl)decane]	2.2 µM and 0.78 µg/mL	
85%	42 µM	CCCCCCCCCCc1ccccc1O [2-decylphenol]	680 nM and 0.16 µg/mL	
69%	66 µM	Cc1cc(C(C)(C)C)c(O)c(C(C)(C)C)c1 [BHT, 2,6-di-tert-butyl-4-methylphenol, reference compound]		
		CCCCCCCCC(=O)c1ccc(O)cc1 [4-nonanoylphenol]	100 nM and 0.024 µg/mL	LC50 ([2]; 24 hours): 0.1 µM
84%	28 µM	Oc1ccccc1CCCCCCCCCCCCCCc1ccccc1O [1,14-bis(2-hydroxyphenyl)tetradecane]	1.9 µM and 0.72 µg/mL	
73%	62 µM	CCCCCCCCCc1cc(O)cc(O)c1C(=O)OCC [ethyl 2,4-dihydroxy-6-nonylbenzoate]	2.6 µM and 0.8 µg/mL	
90%	50 µM	Oc1cc(O)cc(CCCCC/C=C\CCCCCCCc2cc(O)cc(O)c2)c1 [grebustol-B, 1,14-bis(3,5-dihydroxyphenyl)tetradec-Z-6-ene]		Ca^2+ -ATPase inhibitory activity (in words) [1]: weaker
32%	> 100 µM	CCCCCCCCC(=O)c1ccccc1O [2-nonanoylphenol]	630 nM and 0.15 µg/mL	
		CCCCCc1cc(O)cc(O)c1 [5-pentylresorcinol (olivetol), 5-pentylresorcinol, reference compound]		LC50 ([2]; Artemia salina, 24 h): > 100 µM and > 18 µg/mL
60%	85 µM	CCCCCCCCCCc1cc(O)cc(O)c1C(=O)OCC [ethyl 2,4-dihydroxy-6-decylbenzoate]	2.3 µM and 0.75 µg/mL	
99%	18.8 µM	Oc1ccc(CCCCCCCCCCCCc2ccccc2O)cc1 [1-(2-hydroxyphenyl)-12-(4-hydroxyphenyl)dodecane]	54 nM and 0.019 µg/mL	
52%	93 µM	Oc1ccc(CCCCCCCCCCc2ccc(O)cc2)cc1 [1,10-bis(4-hydroxyphenyl)decane]	810 nM and 0.26 µg/mL	
		C[S+](C)[O-] [DMSO, dimethyl sulfoxide]		toxicity to brine shrimp (in words) ([2]; 24 hours): No toxicity towards brine shrimp was observed; mortality at 1 % [2, 4]: 0%; mortality at 2 % [2, 4]: 0%; mortality at 3 % [2, 4]: 0%; mortality at 4 % [2, 4]: 0%; mortality at 5 % [2, 4]: 9%; mortality at 7 % [2, 4]: 12%; mortality at 9 % [2, 4]: 18%; mortality at 11 % [2, 4]: 57%; mortality at 13 % [2, 4]: 96%; mortality at 15 % [2, 4]: 100%; mortality at 20 % [2, 4]: 100%; mortality at 25 % [2, 4]: 100%; LC50 brine shrimp, solvent ([2]; solvent): 11 % v/v
		CCCCCCCCCCCCCCCCCc1cc(O)cc(O)c1 [5-heptadecylresorcinol]	> 100 µM and > 18 µg/mL	
		Cc1c(O)cc(CCCCCCCCCCCCc2cc(O)c(C)c(O)c2)cc1O [1,12-bis(3,5-dihydroxy-4-methylphenyl)dodecane]	> 25 µM and > 10 µg/mL	
		CC(C)(C)CC(C)(C)c1ccc(O)cc1 [4-tert-octylphenol, reference compound]		IC50 [1]: 60 µM; inhibition at 100 µM [1]: 94%

Compound	inhibition at 100 µM ([1]; at 100 μM)	IC50 [1, 3]	LC50 ([2]; Artemia salina, 24 hours)	further results
CC(C)(C)c1cc(C(C)(C)C)c(O)c(C(C)(C)C)c1 [2,4,6-tri-tert-butylphenol, reference compound]	79%			IC50 [1]: 15 µM
nonylphenol [nonylphenol (commercial), reference compound]		27.5 µM		INHIBITION OF Ca^2+ -ATPase PERCENT (%) ([1]; at 100 μM): 100%
Cc1cc(Cc2cc(C)cc(C(C)(C)C)c2O)c(O)c(C(C)(C)C)c1 [2,2'-methylenebis(4-methyl-6-tert-butylphenol), reference compound]		45 µM		inhibition at 100 µM [1]: 74%
